Measured values from ChEMBL document CHEMBL5728999, “Sulfoximine glycosidase inhibitors” (2022).

Target: T1, Protein O-GlcNAcase (Homo sapiens, UniProt O60502)
T1 sequence (O60502 whole entry): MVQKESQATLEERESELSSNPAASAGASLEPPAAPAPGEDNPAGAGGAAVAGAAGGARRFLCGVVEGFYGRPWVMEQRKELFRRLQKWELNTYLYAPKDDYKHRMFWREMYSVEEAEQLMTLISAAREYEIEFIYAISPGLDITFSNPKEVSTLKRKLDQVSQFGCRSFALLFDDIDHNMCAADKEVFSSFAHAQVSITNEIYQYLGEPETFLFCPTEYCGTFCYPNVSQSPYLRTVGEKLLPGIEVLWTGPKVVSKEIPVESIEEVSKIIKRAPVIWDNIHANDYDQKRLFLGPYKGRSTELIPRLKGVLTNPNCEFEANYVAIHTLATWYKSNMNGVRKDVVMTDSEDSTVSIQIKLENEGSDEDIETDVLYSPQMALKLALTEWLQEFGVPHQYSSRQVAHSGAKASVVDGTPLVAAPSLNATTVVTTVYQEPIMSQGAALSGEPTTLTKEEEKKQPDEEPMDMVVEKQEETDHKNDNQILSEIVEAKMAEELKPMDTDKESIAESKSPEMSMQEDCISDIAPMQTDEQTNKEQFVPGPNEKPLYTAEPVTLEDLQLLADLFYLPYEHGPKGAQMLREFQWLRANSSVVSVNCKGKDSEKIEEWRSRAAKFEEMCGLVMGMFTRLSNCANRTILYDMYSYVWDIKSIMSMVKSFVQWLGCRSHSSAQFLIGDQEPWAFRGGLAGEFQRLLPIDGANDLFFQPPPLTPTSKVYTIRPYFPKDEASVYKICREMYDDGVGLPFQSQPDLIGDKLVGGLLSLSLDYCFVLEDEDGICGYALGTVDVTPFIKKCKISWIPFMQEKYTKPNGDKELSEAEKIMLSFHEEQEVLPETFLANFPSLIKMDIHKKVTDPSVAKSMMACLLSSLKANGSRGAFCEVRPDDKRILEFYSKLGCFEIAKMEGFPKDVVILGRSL
Assay: Human O-GlcNAcase enzyme inhibition assay: 5 μl of the appropriate concentration of a solution of inhibitor in McIlvaine's Buffer (pH 6.5) in 2% DMSO (for a dose response curve calculation) is added into each well of a 384-well plate (Greiner, 781900). Then, 20 nM of His-Tagged hOGA and 10 μM of FL-GlcNAc (Fluorescein mono-beta-D-(2-deoxy-2-N-acetyl) glucopyranoside; Marker Gene Technologies Inc, M1485) were added to the 384-well plate for a final volume of 20 μl. After incubation for 60 min at room temperature, the reaction was terminated by the addition of 10 μL of stop buffer (200 mM glycine, pH 10.75).

Question: `CC(c1ccc2c(c1)OCC2)N1CCN(c2ncnc3c2CS(=N)(=O)C3)CC1` (stereo unspecified) was tested. Which IC50 did it give?
Answer: < 50 nM
